The assay has as its target T1, P. xanthii β-tubulin (TUB2), MBC-sensitive (E198) (Podosphaera fusca, UniProt M4QC09).
T1 construct: β-tubulin alone without α-tubulin; E198 allele
The assay can be described thus: intrinsic tryptophan fluorescence quenching, modified Stern-Volmer. The conditions noted are these: double-log; n = 1.41; excitation 295 nm; carbendazim dosed as commercial 50% water-dispersible formulation (Maypon Flow). Type of assay: binding. The text has this:
intrinsic tryptophan fluorescence quenching, modified Stern-Volmer on P. xanthii β-tubulin (TUB2), MBC-sensitive (E198)

T1 sequence (M4QC09 1-447): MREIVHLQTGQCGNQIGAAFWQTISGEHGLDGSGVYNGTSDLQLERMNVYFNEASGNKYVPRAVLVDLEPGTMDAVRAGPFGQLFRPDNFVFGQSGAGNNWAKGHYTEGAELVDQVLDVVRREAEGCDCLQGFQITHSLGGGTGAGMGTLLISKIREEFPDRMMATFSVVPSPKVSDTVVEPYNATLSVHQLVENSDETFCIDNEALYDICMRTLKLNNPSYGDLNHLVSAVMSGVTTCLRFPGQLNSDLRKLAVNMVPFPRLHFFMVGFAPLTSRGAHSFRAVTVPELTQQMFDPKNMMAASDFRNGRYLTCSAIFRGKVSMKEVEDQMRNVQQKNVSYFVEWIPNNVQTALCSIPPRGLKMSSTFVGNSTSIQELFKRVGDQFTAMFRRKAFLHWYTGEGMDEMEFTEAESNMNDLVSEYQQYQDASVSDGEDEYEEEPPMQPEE

For `COC(=O)Nc1nc2ccccc2[nH]1` [carbendazim, methyl-2-benzimidazole carbamate], the “K^b” value came out at 1380 M⁻¹.

The values are drawn from PMC5940828, “Analysis of β-tubulin-carbendazim interaction reveals that binding site for MBC fungicides does not include residues involved in fungicide resistance” (Scientific Reports, 2018).
